Where two headings read alike, the source gives them in different places.
Assays:
[1] = test system: Key Grass and Sedge Weeds as well as Grass Crops; experiment: Post-emergent Test II herbicidal activity (Table 16); assay type: in vivo; conditions: post-emergence, 336 h; for pest or weed control at 35 g/ha: 35 g ai/ha; for pest or weed control at 70 g/ha: 70 g ai/ha; for pest or weed control at 140 g/ha: 140 g ai/ha
Procedure, shortened: (§1)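 Post-emergence spray; seedlings 7-21 d old, 1st-2nd true leaf; 187 L/ha; serial rates 1×-1/16×; solvent blank controls; subirrigated; visual % injury at 14 d.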

[2] = test system: Key Broadleaf Weed and Crop Species; experiment: Post-emergent Test II herbicidal activity (Table 15); assay type: in vivo; conditions: post-emergence, 336 h, 14 d; for pest or weed control at 35 g/ha: 35 g ai/ha; for pest or weed control at 70 g/ha: 70 g ai/ha; for pest or weed control at 140 g/ha: 140 g ai/ha
Procedure, shortened: as §1

[3] = Cyperus esculentus, yellow nutsedge (Cyperus esculentus), 14 days after application, read-out: Visual Growth Reduction (%) 14 Days After Application CYPES
[4] = Echinochloa crus-galli, barnyardgrass (Echinochloa crus-galli), 14 days after application, read-out: Visual Growth Reduction (%) 14 Days After Application ECHCG
[5] = Oryza sativa, rice (Oryza sativa), 14 days after application, read-out: Visual Growth Reduction (%) 14 Days After Application ORYSA
[6] = Setaria faberi, giant foxtail (Setaria faberi), 14 days after application, read-out: Visual Growth Reduction (%) 14 Days After Application SETFA
[7] = Triticum aestivum, wheat, spring (Triticum aestivum), 14 days after application, read-out: Visual Growth Reduction (%) 14 Days After Application TRZAS
[8] = Zea mays, maize, corn (Zea mays), 14 days after application, read-out: Visual Growth Reduction (%) 14 Days After Application ZEAMX
[9] = Abutilon theophrasti, velvetleaf (Abutilon theophrasti), read-out: Visual Growth Reduction (%) 14 Days After Application, ABUTH
[10] = Amaranthus retroflexus, redroot pigweed (Amaranthus retroflexus), read-out: Visual Growth Reduction (%) 14 Days After Application, AMARE
[11] = Brassica napus, oilseed rape, canola (Brassica napus), read-out: Visual Growth Reduction (%) 14 Days After Application, BRSNN
[12] = Chenopodium album, lambsquarters (Chenopodium album), read-out: Visual Growth Reduction (%) 14 Days After Application, CHEAL
[13] = Euphorbia heterophylla, wild poinsettia (Euphorbia heterophylla), read-out: Visual Growth Reduction (%) 14 Days After Application, EPHHL
[14] = Helianthus annuus, sunflower (Helianthus annuus), read-out: Visual Growth Reduction (%) 14 Days After Application, HELAN
[15] = Cyperus esculentus, yellow nutsedge (Cyperus esculentus), 14 d, read-out: Visual Growth Reduction (%) 14 Days After Application, CYPES
[16] = Echinochloa crus-galli, barnyardgrass (Echinochloa crus-galli), 14 d, read-out: Visual Growth Reduction (%) 14 Days After Application, ECHCG
[17] = Oryza sativa, rice (Oryza sativa), 14 d, read-out: Visual Growth Reduction (%) 14 Days After Application, ORYSA
[18] = Setaria faberi, giant foxtail (Setaria faberi), 14 d, read-out: Visual Growth Reduction (%) 14 Days After Application, SETFA
[19] = Triticum aestivum, wheat, spring (Triticum aestivum), 14 d, read-out: Visual Growth Reduction (%) 14 Days After Application, TRZAS
[20] = Zea mays, maize, corn (Zea mays), 14 d, read-out: Visual Growth Reduction (%) 14 Days After Application, ZEAMX

COC(=O)c1nc(-c2ccc3sccc3c2)nc(N)c1OC [Compound 3.08] gave a pest or weed control at 35 g/ha [1, 3] of 0 to 29%, a pest or weed control at 70 g/ha [1, 3] of 0 to 29% and a pest or weed control at 140 g/ha [1, 3] of 30 to 44%. The pest or weed control at 35 g/ha [1, 4] was 0 to 29%, the pest or weed control at 70 g/ha [1, 4] was 0 to 29% and the pest or weed control at 140 g/ha [1, 4] was 75 to 84%. For the same compound, the pest or weed control at 35 g/ha [1, 5] was 0 to 29%, the pest or weed control at 70 g/ha [1, 5] was 0 to 29% and the pest or weed control at 140 g/ha [1, 5] was 0 to 29%. It also gave a pest or weed control at 35 g/ha [1, 6] of 0 to 29%, a pest or weed control at 70 g/ha [1, 6] of 0 to 29% and a pest or weed control at 140 g/ha [1, 6] of 0 to 29%. The pest or weed control at 35 g/ha [1, 7] was 45 to 59%, the pest or weed control at 70 g/ha [1, 7] was 60 to 74% and the pest or weed control at 140 g/ha [1, 7] was 60 to 74%. It also gave a pest or weed control at 35 g/ha [1, 8] of 30 to 44%, a pest or weed control at 70 g/ha [1, 8] of 60 to 74% and a pest or weed control at 140 g/ha [1, 8] of 75 to 84%. The pest or weed control at 35 g/ha [2, 9] was 0 to 29%, the pest or weed control at 70 g/ha [2, 9] was 30 to 44% and the pest or weed control at 140 g/ha [2, 9] was 30 to 44%. The pest or weed control at 35 g/ha [2, 10] was 0 to 29%, the pest or weed control at 70 g/ha [2, 10] was 30 to 44% and the pest or weed control at 140 g/ha [2, 10] was 60 to 74%. It also gave a pest or weed control at 35 g/ha [2, 11] of 0 to 29%, a pest or weed control at 70 g/ha [2, 11] of 0 to 29% and a pest or weed control at 140 g/ha [2, 11] of 30 to 44%. The pest or weed control at 35 g/ha [2, 12] was 85 to 94%, the pest or weed control at 70 g/ha [2, 12] was 85 to 94% and the pest or weed control at 140 g/ha [2, 12] was 85 to 94%. For the same compound, the pest or weed control at 35 g/ha [2, 13] was 60 to 74%, the pest or weed control at 70 g/ha [2, 13] was 75 to 84% and the pest or weed control at 140 g/ha [2, 13] was 85 to 94%. For the same compound, the pest or weed control at 35 g/ha [2, 14] was 60 to 74%, the pest or weed control at 70 g/ha [2, 14] was 75 to 84% and the pest or weed control at 140 g/ha [2, 14] was 85 to 94%. For the same compound, the melting point was 125 to 127 °C.

With COC(=O)c1nc(-c2cccc3[nH]ccc23)c(F)c(N)c1Cl [Compound 1.40] the pest or weed control at 35 g/ha [1, 15] was 0 to 29%, the pest or weed control at 70 g/ha [1, 15] was 0 to 29% and the pest or weed control at 140 g/ha [1, 15] was 0 to 29%. The pest or weed control at 35 g/ha [1, 16] was 0 to 29%, the pest or weed control at 70 g/ha [1, 16] was 0 to 29% and the pest or weed control at 140 g/ha [1, 16] was 0 to 29%. The pest or weed control at 35 g/ha [1, 17] was 0 to 29%, the pest or weed control at 70 g/ha [1, 17] was 0 to 29% and the pest or weed control at 140 g/ha [1, 17] was 0 to 29%. The pest or weed control at 35 g/ha [1, 18] was 0 to 29%, the pest or weed control at 70 g/ha [1, 18] was 0 to 29% and the pest or weed control at 140 g/ha [1, 18] was 0 to 29%. The pest or weed control at 35 g/ha [1, 19] was 0 to 29%, the pest or weed control at 70 g/ha [1, 19] was 0 to 29% and the pest or weed control at 140 g/ha [1, 19] was 0 to 29%. It also gave a pest or weed control at 35 g/ha [1, 20] of 0 to 29%, a pest or weed control at 70 g/ha [1, 20] of 0 to 29% and a pest or weed control at 140 g/ha [1, 20] of 0 to 29%. For the same compound, the pest or weed control at 35 g/ha [2, 9] was 0 to 29%, the pest or weed control at 70 g/ha [2, 9] was 0 to 29% and the pest or weed control at 140 g/ha [2, 9] was 0 to 29%. For the same compound, the pest or weed control at 70 g/ha [2, 10] was 95 to 100%, the pest or weed control at 35 g/ha [2, 11] was 0 to 29% and the pest or weed control at 70 g/ha [2, 11] was 0 to 29%. The pest or weed control at 140 g/ha [2, 11] was 0 to 29%, the pest or weed control at 35 g/ha [2, 12] was 0 to 29% and the pest or weed control at 70 g/ha [2, 12] was 0 to 29%. It also gave a pest or weed control at 140 g/ha [2, 12] of 0 to 29%, a pest or weed control at 35 g/ha [2, 13] of 0 to 29% and a pest or weed control at 70 g/ha [2, 13] of 0 to 29%. The pest or weed control at 140 g/ha [2, 13] was 0 to 29%, the pest or weed control at 35 g/ha [2, 14] was 0 to 29% and the pest or weed control at 70 g/ha [2, 14] was 30 to 44%. It also gave a pest or weed control at 140 g/ha [2, 14] of 45 to 59% and a melting point of 233 to 236 °C.

From patent US20170050957A1, “4-AMINO-6-(HETEROCYCLIC)PICOLINATES AND 6-AMINO-2-(HETEROCYCLIC)PYRIMIDINE-4-CARBOXYLATES AND THEIR USE AS HERBICIDES” (Dow AgroSciences LLC, priority 2013, published 2017)
